Experimental data from patent US20260041653A1, “AN HDAC INHIBITOR FOR TREATING CANCER WITH A MODIFIED STK11 ACTIVITY OR EXPRESSION” (Tango Therapeutics, Inc., priority 2022, published 2026).

How the values were obtained:
MC38_sgStk11 tumor = experiment: Re-challenge of survived animals of Example 1 with MC38_sgStk11 cells; type: in vivo, Mus musculus; details: off-treatment
Experimental: Summary: A re-challenge study of Example 1 was performed to evaluate whether the survived animals from Example 1 had acquired T memory against the same tumor.
Experimental Design & Materials: The survived animals of the efficacy part were re-challenged with MC38_sgStk11 cells respectively in the opposite side of primary tumors.
The MC38_sgStk11 tumor cells were maintained in vitro as a monolayer culture in DMEM+2 mM glutamine supplemented with about 10% heat inactivated fetal bovine serum, 100 U/ml penicillin and 100 μg/ml streptomycin at about 37° C. in an atmosphere of about 5% CO2 in air. The tumor cells were routinely sub-cultured twice weekly by trypsin-EDTA treatment. The cells growing in an exponential growth phase were harvested and counted for tumor inoculation.
Mice were inoculated subcutaneously at the left lower flank with MC38_sgStk11 tumor cells (0.5×106) in 0.1 ml of PBS for tumor development. The animal numbers and the cell numbers for each group are shown in the experimental design (Table 2-1). The survived animals from the Example 1 were under post-treatment monitoring for 21 days before re-challenge.
All the procedures related to animal handling, care and the treatment in the study were performed according to the guidelines approved by the Institutional Animal Care and Use Committee (IACUC) of vendor following the guidance of the Association for Assessment and Accreditation of Laboratory Animal Care (AAALAC). At the time of routine monitoring, the animals were daily checked for any effects of tumor growth and treatments on normal behavior such as mobility, food and water consumption, body weight gain/loss (body weights were measured twice per week), eye/hair matting and any other abnormal effect as stated in the protocol. Death and observed clinical signs were recorded on the basis of the numbers of animals within each subset.
Tumor size was measured three times per week in […] using a caliper, and the volume was expressed in mm3 using the formula: V=0.5 a×b2 where a and b are the long and short diameters of the tumor, respectively.

[1] = PK/PD study, plasma concentrations in MC38 tumor-bearing mice; type: in vivo, C57BL/6 mice; details: for free unbound exposure in plasma: based on 10.05% free fraction
Experimental: In a separate PK/PD study, MC38 tumor-bearing female C57BL/6 mice (12/group) were assigned to treatment groups with similar mean tumor volumes of approximately 430 mm^3 and treated with vehicle (5% N,N-dimethylacetamide [DMA]+30% polyethylene glycol [PEG] 400+65% of 30% 2-hydroxypropyl-beta-cyclodextrin [HP-β-CD] in water) or Compound I at 30, 100, and 300 mg/kg once daily (QD) for 2 days. […] Peripheral blood mononuclear cells (PBMC) and tumor samples were harvested at 2, 8, and 24 hours after last dose. The PBMC samples were processed for determination of mean florescent level of acetyl-histone H2B by flow cytometry. Tumor samples were processed for determination of protein levels of acetyl-histone H3 by Western blot.

CYP3A4/5 = experiment: Metabolism by recombinant human CYP3A4/5; type: in vitro ADME; details: read-out: terminal half life (T1/2), rh CYP3A4/5
Experimental: Drug metabolizing enzymes involved in the biotransformation of Compound I were investigated using human liver microsomes (HLM) and recombinant enzymes. Compound I was stable in HLMs (>93% remaining after 240 minutes of incubation with HLM protein concentration at 0.6 mg/ml). CYP selective inhibitor experiments were not performed due to lack of appreciable Compound I turnover.

[2] = 30, 100, 300 mg/kg QD for 2 days

C[S@@](=N)(=O)c1ccc(C(=O)Nc2cc(-c3ccc(F)cc3)ccc2N)cc1 [Compound I, (R)—N-(4-amino-4′-fluoro-[1,1′-biphenyl]-3-yl)-4-(S-methylsulfonimidoyl)benzamide]
Tumor Volume after re-challenge (MC38_sgStk11 tumor; Re-challenge Gr 2: survivor of Ex. 1 Gr. 5 (Anti-IgG2a + Compound I 75 mg/kg), day 0 after cell inoculation): 0 mm^3
Tumor Volume after re-challenge (MC38_sgStk11 tumor; Re-challenge Gr 2: survivor of Ex. 1 Gr. 5 (Anti-IgG2a + Compound I 75 mg/kg), day 3 after cell inoculation): 17 mm^3
Tumor Volume after re-challenge (MC38_sgStk11 tumor; Re-challenge Gr 2: survivor of Ex. 1 Gr. 5 (Anti-IgG2a + Compound I 75 mg/kg), day 5 after cell inoculation): 25 mm^3
Tumor Volume after re-challenge (MC38_sgStk11 tumor; Re-challenge Gr 2: survivor of Ex. 1 Gr. 5 (Anti-IgG2a + Compound I 75 mg/kg), day 8 after cell inoculation): 6 mm^3
Tumor Volume after re-challenge (MC38_sgStk11 tumor; Re-challenge Gr 2: survivor of Ex. 1 Gr. 5 (Anti-IgG2a + Compound I 75 mg/kg), day 10 after cell inoculation): 0 mm^3
Tumor Volume after re-challenge (MC38_sgStk11 tumor; Re-challenge Gr 2: survivor of Ex. 1 Gr. 5 (Anti-IgG2a + Compound I 75 mg/kg), day 12 after cell inoculation): 0 mm^3
Tumor Volume after re-challenge (MC38_sgStk11 tumor; Re-challenge Gr 2: survivor of Ex. 1 Gr. 5 (Anti-IgG2a + Compound I 75 mg/kg), day 15 after cell inoculation): 0 mm^3
Tumor Volume after re-challenge (MC38_sgStk11 tumor; Re-challenge Gr 2: survivor of Ex. 1 Gr. 5 (Anti-IgG2a + Compound I 75 mg/kg), day 17 after cell inoculation): 0 mm^3
Tumor Volume after re-challenge (MC38_sgStk11 tumor; Re-challenge Gr 2: survivor of Ex. 1 Gr. 5 (Anti-IgG2a + Compound I 75 mg/kg), day 19 after cell inoculation): 0 mm^3
Tumor Volume after re-challenge (MC38_sgStk11 tumor; Re-challenge Gr 7: survivors of Ex. 1 Gr. 12 (head prints Anti-IgG2a + Compound I 150 mg/kg D0-D4, 100 mg/kg D5-D48), day 0 after cell inoculation): 0 ± 0 mm^3
Tumor Volume after re-challenge (MC38_sgStk11 tumor; Re-challenge Gr 7: survivors of Ex. 1 Gr. 12 (head prints Anti-IgG2a + Compound I 150 mg/kg D0-D4, 100 mg/kg D5-D48), day 3 after cell inoculation): 27 ± 2 mm^3
Tumor Volume after re-challenge (MC38_sgStk11 tumor; Re-challenge Gr 7: survivors of Ex. 1 Gr. 12 (head prints Anti-IgG2a + Compound I 150 mg/kg D0-D4, 100 mg/kg D5-D48), day 5 after cell inoculation): 27 ± 1 mm^3
Tumor Volume after re-challenge (MC38_sgStk11 tumor; Re-challenge Gr 7: survivors of Ex. 1 Gr. 12 (head prints Anti-IgG2a + Compound I 150 mg/kg D0-D4, 100 mg/kg D5-D48), day 8 after cell inoculation): 6 ± 0 mm^3
Tumor Volume after re-challenge (MC38_sgStk11 tumor; Re-challenge Gr 7: survivors of Ex. 1 Gr. 12 (head prints Anti-IgG2a + Compound I 150 mg/kg D0-D4, 100 mg/kg D5-D48), day 10 after cell inoculation): 0 ± 0 mm^3
Tumor Volume after re-challenge (MC38_sgStk11 tumor; Re-challenge Gr 7: survivors of Ex. 1 Gr. 12 (head prints Anti-IgG2a + Compound I 150 mg/kg D0-D4, 100 mg/kg D5-D48), day 12 after cell inoculation): 0 ± 0 mm^3
Tumor Volume after re-challenge (MC38_sgStk11 tumor; Re-challenge Gr 7: survivors of Ex. 1 Gr. 12 (head prints Anti-IgG2a + Compound I 150 mg/kg D0-D4, 100 mg/kg D5-D48), day 15 after cell inoculation): 0 ± 0 mm^3
Tumor Volume after re-challenge (MC38_sgStk11 tumor; Re-challenge Gr 7: survivors of Ex. 1 Gr. 12 (head prints Anti-IgG2a + Compound I 150 mg/kg D0-D4, 100 mg/kg D5-D48), day 17 after cell inoculation): 0 ± 0 mm^3
Tumor Volume after re-challenge (MC38_sgStk11 tumor; Re-challenge Gr 7: survivors of Ex. 1 Gr. 12 (head prints Anti-IgG2a + Compound I 150 mg/kg D0-D4, 100 mg/kg D5-D48), day 19 after cell inoculation): 0 ± 0 mm^3
free unbound exposure in plasma ([1]; 30 mg/kg QD for 2 days): 5470 ng·h/mL
free unbound exposure in plasma ([1]; 100 mg/kg QD for 2 days): 17238 ng·h/mL
free unbound exposure in plasma ([1]; 300 mg/kg QD for 2 days): 69665 ng·h/mL
plasma concentrations versus dose [1, 2]: dose proportional
time of maximal plasma concentrations after the last dose [1, 2]: 1 h
half-life (CYP3A4/5): > 60 min
